The subject of assay [1] is cuffed mice C57Bl6/J. As to the kind of experiment: Intrathecal injection of AI-25, mechanical nociceptive threshold of cuffed mice. It counts as in vivo. The note with it: 10 nmoles. How it is done: (§1) Experiments and surgeries were performed as previously described.
The functional property of peptide AI-25 (10 nmoles) was evaluated through injections in the spinal cord of 8 mice C57B16/J (intrathecal injection, volume 5 μl). The aim was to study the consequences of these injections on mechanical nociceptive threshold of cuffed mice using the […].
(§2) The mechanical threshold for hind paw withdrawal was determined using Von Frey filaments as previously described.

In assay [2] the target is CK-M (Homo sapiens, UniProt P06732). As to the kind of experiment: Inhibitory effect of morphine on ATP formation by creatine kinase. It counts as biochemical. Particulars: ratio 3n/1n (FIG. 2).
The subject of assay [3] is C57Bl/6J mice. Put plainly: Intrathecal injection, mechanical nociceptive thresholds of healthy mice, von Frey filaments. It counts as in vivo. Particulars: for analgesia (mechanical nociceptive threshold vs control): right leg, two-ways ANOVA. How it is done: (§3) Experiments were performed on adult male C57Bl/6J mice (6 weeks old, Charles River, L'Arbresle, France). Animals were housed in groups of 3, under standard conditions (room temperature: 22° C.; 12/12-hour light-dark cycle) with ad libitum access to food and water. All experiments were conducted according to the recommendations of the European Committee Council Direction of Sep. 22, 2010 (2010/63/EU).
The functional properties of peptides P1 (20 nmoles) and P4 (10 nmoles) were evaluated through injections in the spinal cord of 4 groups of 6 mice C57B16/J (intrathecal injection, volume of 5 μl). […] Mice were previously placed under gaseous anesthesia with isoflurane (volatile anesthetic agent) with a minimum alveolar concentration (MAC) of 1.34%. A 27-gauge needle connected to a syringe was inserted between the vertebrae L5 and L6, in the subarachnoid space. Isoflurane induced a general anesthesia with respiratory depression in mice.
The mechanical threshold for hind paw withdrawal was determined using Von Frey hairs. Mice were placed in clear plexiglass boxes on an elevated mesh screen. Von Frey filaments (Bioseb, Chaville, France) were applied to the plantar surface of each hind paw in a series of ascending forces (0.4 g-15 g). Filaments were tested 5 times per paw, and the mechanical threshold was defined as 3 or more withdrawals out of the 5 trials. Lithium chloride and naloxone (Sigma-Aldrich, St. Louis, U.S.A.) were diluted in NaCl 0.9% (w/v).

In assay [4] the test system is C57Bl/6J neuropathic mice. Put plainly: Intraperitoneal injection, mechanical nociceptive thresholds of neuropathic (cuffed) mice, von Frey filaments. It counts as in vivo. The note with it: 10 nmoles; for effect on mechanical thresholds of Sham animals: Sham mice. The method, then: Experiments were performed on adult male C57Bl/6J mice (6 weeks old, Charles River, L'Arbresle, France). Animals were housed in groups of 5, under standard conditions (room temperature: 22° C.; 12/12-hour light-dark cycle) with ad libitum access to food and water. All experiments were conducted according to the recommendations of the European Committee Council Direction of Sep. 22, 2010 (2010/63/EU).
All surgeries were done under aseptic conditions and ketamine/xylazine anaesthesia (ketamine: 17 mg/ml, xylazine: 2.5 mg/ml, i.p., 4 ml/kg, i.p.; Centravet, Taden, France). The right sciatic nerve was cuffed with a section of polyethylene tubing (cuff group) as previously described [Mosconi et Kruger, Pain, 64(1): 37-57, 1996] [7].
The mechanical threshold for hind paw withdrawal was determined using Von Frey hairs. Mice were placed in clear plexiglass boxes on an elevated mesh screen. Von Frey filaments (Bioseb, Chaville, France) were applied to the plantar surface of each hind paw in a series of ascending forces (0.4 g-15 g). Filaments were tested 5 times per paw, and the mechanical threshold was defined as 3 or more withdrawals out of the 5 trials.

For assay [5], the system named is cuffed mice C57Bl6/J. Put plainly: Intrathecal injection of KN-50, mechanical nociceptive threshold of cuffed mice. Type of assay: in vivo. The note with it: 33 nmoles, vs saline solution. The method, then:
as §1
The functional property of peptide KN-50 (33 nmoles) and NaCl 0.9% was evaluated through injections in the spinal cord of 8 mice C57B16/J (intrathecal injection, volume 5 μl). The aim was to study the consequences of these injections on mechanical nociceptive threshold of cuffed mice, in comparison of saline solution.
as §2

Assay [6] in a line: ELISA on peptide-coated plate: affinity for morphine. The note with it: ligand 300 μM to 0.1 μM.
For assay [7], the system named is cuffed rats (neuropathic). As to the kind of experiment: Intrathecal injection, cuff neuropathic rat model, calibrated forceps test. Type of assay: in vivo. The note with it: 10 nmoles. The method, then:
as §3, with “Wistar at” for “C57Bl/6J mice”, “(2010/63/EU). Procedures were positively evaluated by the regional ethical committee, and experiments were conducted with an official authorization for animal experimentation from the French Department of Agriculture (license 67-116 to P.P.).” for “(2010/63/EU).”
All surgeries were done under aseptic conditions and ketamine/xylazine anaesthesia (ketamine: 17 mg/ml, xylazine: 2.5 mg/ml, i.p., 4 ml/kg, i.p.; Centravet, Taden, France). The right sciatic nerve was cuffed with a section of polyethylene tubing (cuff group) as previously described [Mosconi et Kruger, Pain, 64(1): 37-57, 1996] [7]. Sham-operated mice underwent the same surgical procedure as cuffed animals without implantation of the cuff (sham group).
The functional property of peptide P4 (10 nmoles) was evaluated through injections in the spinal cord of 1 groups of 3 rats (intrathecal injection, volume of 5 μl). The aim was to study the consequences of these injections on mechanic nociceptive threshold of cuffed animals in comparison of the sham group (control), using the calibrated forceps test. Rats were previously placed under gaseous anesthesia with isoflurane (volatile anesthetic agent) with a minimum alveolar concentration (MAC) of 1.34%. A 27-gauge needle connected to a syringe was inserted between the vertebrae L5 and L6, in the subarachnoid space.
The mechanical response was evaluated using digital calibrated forceps (Bioseb, Chaville, France) according to company's recommendations, before and 1 to 6 hours after intrathecal injections.

The mark [8] stands for this setting: intrathecal, 10 nmoles, healthy mice.
Where [9] appears, read: neuropathic mice, comparison to baseline.
Where [10] appears, read: intrathecal, 20 nmoles, healthy mice.

CK-M, sequence (P06732 whole entry, species assumed): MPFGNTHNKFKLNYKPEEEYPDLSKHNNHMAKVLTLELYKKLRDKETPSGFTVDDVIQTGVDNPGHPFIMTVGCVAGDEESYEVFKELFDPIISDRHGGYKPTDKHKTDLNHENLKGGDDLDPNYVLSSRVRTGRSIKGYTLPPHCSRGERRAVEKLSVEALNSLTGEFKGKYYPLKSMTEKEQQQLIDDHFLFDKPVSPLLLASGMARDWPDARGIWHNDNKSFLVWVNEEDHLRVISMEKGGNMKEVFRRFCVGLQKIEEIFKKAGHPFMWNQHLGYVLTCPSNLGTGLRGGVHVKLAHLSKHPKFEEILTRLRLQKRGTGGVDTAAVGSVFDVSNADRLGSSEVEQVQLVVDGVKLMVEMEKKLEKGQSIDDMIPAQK

As to “peptide AI-25: peptide derived from P4, amino acids 214-238 (SEQ ID NO: 4) of mouse creatine kinase B”, in assay [1], the “neuropathic pain, ipsilateral paw mechanical threshold” value (shortened to “neuropathic pain”) was “reversed the neuropathic pain” and the “non-cuffed contralateral paw mechanical threshold” value is given as “did not significantly affect”. Further, the “neuropathic pain” value in assay [1] (listed as amino acids 214-238) is “present analgesic activity”.

On to `CN1CC[C@]23c4c5ccc(O)c4O[C@H]2[C@@H](O)C=C[C@H]3[C@H]1C5` [morphine, reference compound], for which the “inhibition of enzymatic activity of CK (production of ATP from phosphocreatine)” value in assay [2] was ~18%. Besides, in assay [3] (intrathecal, 10 nmoles, healthy mice, Holm-Sidak), the “analgesia on right leg 4 hours after injection” value is given as “significant analgesia”. For the same compound, in assay [3] (setting [8]), the “analgesia (mechanical nociceptive threshold vs control)” value was “induced a significant analgesia”. The “effect on mechanical thresholds of Sham animals” value in assay [4] is “No significant effect”. Further, the “analgesic effect, ipsilateral paw, at 3 h” value in assay [4] (setting [9]) is listed as “significant analgesic effect”.

As to “peptide KN-50: peptide derived from P4, amino acids 196-246 (SEQ ID NO: 5) of mouse creatine kinase B”, in assay [5], the “neuropathic pain” value is “reversed the neuropathic pain” and the “non cuffed contralateral paw mechanical threshold” value is listed as “did not affect”. In addition, the “neuropathic pain” value in assay [5] (listed as amino acids 196-246) is listed as “present analgesic activity”.

Consider “peptide P1: peptide consisting of amino acids 1-75 (SEQ ID NO: 2) from the mouse CK-B sequence SEQ ID NO: 1”, for which, in assay [3] (setting [10]), the “values of von Frey / sensitivity towards mechanical stimulation” value was “close or equal to cut-off” and the “analgesia (mechanical nociceptive threshold vs control)” value is on record as “induced a significant analgesia”. The “values of von Frey / sensitivity towards mechanical stimulation” value in assay [3] (intrathecal, 20 nmoles, healthy mice, listed as amino acids 1-75) was “almost complete insensitivity”. The “occlusion of analgesic activity by morphine” value in assay [3] (peptide 20 nmoles injected in presence of 10 nmoles of morphine) is “occlusion of analgesic activity”. Moreover, the affinity for morphine entry in assay [6] is given as “showed an affinity”.

With “peptide P4: peptide consisting of amino acids 184-258 (SEQ ID NO: 3) of the mouse CK-B sequence SEQ ID NO: 1”, in assay [3] (setting [8]), the “values of von Frey / sensitivity towards mechanical stimulation” value was “close or equal to cut-off” and the “analgesia (mechanical nociceptive threshold vs control)” value is “induced a significant analgesia”. Besides, the “values of von Frey / sensitivity towards mechanical stimulation” value in assay [3] (intrathecal, 10 nmoles, healthy mice, listed as amino acids 184-258) is reported as “almost complete insensitivity”. The “occlusion of analgesic activity by morphine” value in assay [3] (peptide 10 nmoles injected in presence of 10 nmoles of morphine) is “not observed”. Moreover, in assay [7] (cuffed rats), the “neuropathic pain” value is on record as “reverses the neuropathic pain” and the “non-cuffed contralateral paw mechanical threshold” value is listed as “did not affect”. For the same compound, the duration of analgesia result in assay [7] (cuffed rats, ipsilateral paw) is reported as “at least 6 h”. The “neuropathic pain” value in assay [7] (cuffed rats, listed as peptide 4) was “reversed the neuropathic pain”. Besides, the “mechanical threshold of the sham group” value in assay [7] (sham rats) is “did not affect”. Besides, the “effect on mechanical thresholds of Sham animals” value in assay [4] is recorded as “No significant effect”. Also, the “basic mechanical nociceptive thresholds of the contralateral hind legs” value in assay [4] (neuropathic mice) is recorded as “do not modify”. For the same compound, in assay [4] (setting [9]), the “analgesic effect, ipsilateral paw, at 3 h” value was “significant analgesic effect” and the “analgesic effect, ipsilateral paw, at 4 h post injection” value is “significant analgesic effect”. The affinity for morphine result in assay [6] is recorded as “showed an affinity”.

The values are drawn from patent US20180264088A1, “USE OF CREATINE KINASE AND DERIVED PEPTIDES THEREOF TO RELIEVE PAIN” (CENTRE NATIONAL DE LA RECHERCHE SCIENTIFIQUE, priority 2015, published 2018).
